Test results as given in patent US20240374631A1, “A COMPOSITION FOR IMPROVING GUT MICROBIOTA, BEHAVIOURAL PATTERN, ALPHA-SYNUCLEIN LEVELS, SLEEP PATTERN AND/OR SERUM MELATONIN” (GN Corporation Co Ltd, priority 2021, published 2024).

Tested on: gut microbiota
Experiment: Gut microbiome analysis (16S rRNA sequencing of fecal samples) in STAM model of NASH
Assay type: in vivo, C57BL/6J mice
Conditions: pre (baseline)
Source text: The study is reported in accordance with Animal Research: Reporting of In Vivo Experiments (ARRIVE) guidelines. C57BL/6J mice were obtained from Japan SLC, Inc. (Japan). All animals used in this study were cared for under the following guidelines: Act on Welfare and Management of Animals (Ministry of the Environment, Japan, Act No. 105 of Oct. 1, 1973), standards relating to the care and management of laboratory animals and relief of pain (Notice No. 88 of the Ministry of the Environment, Japan, Apr. 28, 2006) and the guidelines for proper conduct of animal experiments (Science Council of Japan, Jun. 1, 2006). Protocol approvals were obtained from SMC Laboratories, Japan's IACUC (Study reference no: […] Mice were maintained in a specific pathogen-free (SPF) facility under controlled conditions of temperature (23±3° C.), humidity (50±20%), lighting (12-hour artificial light and dark cycles; light from 8:00 to 20:00) and air exchange. The STAM model of NASH was induced as previously described [D10]. Mice were given a single subcutaneous injection of 200 μg streptozotocin (STZ, Sigma-Aldrich, USA) solution 2 days after birth and fed with a high-fat diet (HFD, 57 kcal % fat, Cat #HFD32, CLEA Japan, Inc., Japan) from 4-9 weeks of age. All mice develop liver steatosis and diabetes and at […] mice had established steatohepatitis, histologically. Studygroups: There were five study groups, described below. Eight mice were included in each study group. Eight NASH mice were orally administered vehicle supplemented with AFO-202 Beta Glucan at a dose of 1 mg/kg in a volume of 5 mL/kg once daily from 6 to 9 weeks of age. Eight NASH mice were orally administered vehicle supplemented with Telmisartan at a dose of 10 mg/kg once daily from 6 to 9 weeks of age. Frequency: Fecal samples were collected at the 6 weeks of age (before administration) and 9 weeks of age (before sacrifice). Procedure: At 6 weeks of age, fecal samples were collected from each mouse by clean catch method. […] A sterile petri dish was placed on the bench. Gently massage the abdomen, position the bottom of mouse over a fresh petri dish, and collect 1-2 fecal pellets. At sacrifice, fecal samples were aseptically collected from cecum. The tubes with feces were placed on ice immediately. These tubes were snap frozen in liquid nitrogen and stored at -80° C. for shipping. In this analysis, the 16S rRNA sequence data acquired by the next-generation sequencer from the fecal […] was used to perform community analysis using the QIIME2 program for microbial community analysis. The raw read data in FASTQ format output from the next-generation sequencer was trimmed to remove adapter sequences and low QV regions that may be included in the data. Cutadapt was used to remove adapter sequences from DNA sequencing reads. Trimmomatic was used as read trimming tool for Illumina NGS data. The adapter sequence was trimmed using the adapter trimming program “cutadapt” if the Trimming of the region at the end of the read sequence overlapped the corresponding sequence by at least one base (mismatch tolerance: 20%). When reads containing N were present in at least one of Read1 and Read2, both Read1 and Read2 were removed. Trimming of low QV regions was performed on the read data after processing using the QV trimming program “Trimmomatic” under the following conditions. The window of 20 bases is slid from the 5' side, and the area where the average QV is less than 20 is trimmed. After trimming, only the reads with more than 50 bases remaining in both Read1 and Read2 were taken as output. The microbial community analysis based on 16S rRNA sequence was performed on the sequence data trimmed in the previous section using the microbial community analysis program “QIIME2”. The annotation program “sklearn” included in QIIME2 is used to annotate the ASV (OTU) sequences. […]

Compound: CCCc1nc2c(C)cc(-c3nc4ccccc4n3C)cc2n1Cc1ccc(-c2ccccc2C(=O)O)cc1 [Telmisartan]
- Abundance: S24-7, —, — (line r302): 47
- Abundance: —, —, — (line r303): 0
- Abundance: Ruminococcaceae, Oscillospira, — (line r304): 35
- Abundance: Bacteroidaceae, Bacteroides, acidifaciens (line r305): 0
- Abundance: Bacteroidaceae, Bacteroides, acidifaciens (line r306): 0
- Abundance: Lachnospiraceae, Dorea, — (line r307): 25
- Abundance: Ruminococcaceae, Other, Other (line r308): 10
- Abundance: Lachnospiraceae, —, — (line r309): 7
- Abundance: Lachnospiraceae, —, — (line r310): 20
- Abundance: S24-7, —, — (line r311): 1
- Abundance: Lachnospiraceae, Other, Other (line r312): 14
- Abundance: —, —, — (line r313): 0
- Abundance: Ruminococcaceae, Oscillospira, — (line r314): 0
- Abundance: Ruminococcaceae, Oscillospira, — (line r315): 42
- Abundance: Lachnospiraceae, —, — (line r316): 14
- Abundance: Erysipelotrichaceae, —, — (line r317): 0
- Abundance: Lachnospiraceae, —, — (line r319): 13
- Abundance: Ruminococcaceae, Oscillospira, — (line r320): 0
- Abundance: Lachnospiraceae, —, — (line r321): 22
- Abundance: Other, Other, Other (line r322): 49
- Abundance: F16, —, — (line r323): 0
- Abundance: Christensenellaceae, —, — (line r324): 19
- Abundance: Lachnospiraceae, Other, Other (line r325): 0
- Abundance: Ruminococcaceae, Oscillospira, — (line r326): 12
- Abundance: —, —, — (line r327): 80
- Abundance: Ruminococcaceae, Other, Other (line r328): 14
- Abundance: —, —, — (line r329): 0
- Abundance: Lachnospiraceae, Other, Other (line r330): 0
- Abundance: Other, Other, Other (line r331): 0
- Abundance: Enterococcaceae, Vagococcus, — (line r332): 0
- Abundance: Ruminococcaceae, Ruminococcus, — (line r333): 23
- Abundance: Erysipelotrichaceae, Coprabacillus, — (line r334): 11
- Abundance: Other, Other, Other (line r335): 0
- Abundance: Ruminococcaceae, Oscillospira, — (line r336): 11
- Abundance: Ruminococcaceae, Oscillospira, — (line r337): 0
- Abundance: —, —, — (line r338): 0
- Abundance: Lachnospiraceae, —, — (line r339): 0
- Abundance: Ruminococcaceae, Oscillospira, — (line r340): 0
- Abundance: Lachnospiraceae, Coprococcus, — (line r341): 0
- Abundance: Ruminococcaceae, Other, Other (line r342): 8
- Abundance: —, —, — (line r343): 0
- Abundance: Erysipelotrichaceae, —, — (line r344): 6
- Abundance: Rikenellaceae, —, — (line r345): 0
- Abundance: —, —, — (line r346): 0
- Abundance: —, —, — (line r347): 0
- Abundance: —, —, — (line r348): 8
- Abundance: Lachnospiraceae, —, — (line r349): 0
- Abundance: —, —, — (line r350): 15
- Abundance: Lachnospiraceae, Clostridium, Other (line r351): 0
- Abundance: Erysipelotrichaceae, —, — (line r352): 9
- Abundance: Streptococcaceae, Streptococcus, minor (line r353): 9
- Abundance: Ruminococcaceae, Oscillospira, — (line r354): 0
- Abundance: —, —, — (line r355): 27
- Abundance: Lachnospiraceae, Other, Other (line r356): 7
- Abundance: Other, Other, Other (line r357): 36
- Abundance: —, —, — (line r358): 0
- Abundance: —, —, — (line r359): 0
- Abundance: —, —, — (line r360): 0
- Abundance: Lachnospiraceae, —, — (line r362): 7
- Abundance: Streptococcaceae, Streptococcus, — (line r363): 0
- Abundance: S24-7, —, — (line r365): 0
- Abundance: Other, Other, Other (line r367): 0
- Abundance: [Mogibacteriaceae], —, — (line r368): 0
- Abundance: Enterobacteriaceae, Enterobacter, Other (line r369): 0
- Abundance: Erysipelotrichaceae, —, — (line r371): 0
- Abundance: Aerococcaceae, Aerococcus, — (line r372): 0
- Abundance: Ruminococcaceae, Oscillospira, — (line r373): 0
- Abundance: Ruminococcaceae, Oscillospira, — (line r374): 0
- Abundance: Other, Other, Other (line r375): 5
- Abundance: Lachnospiraceae, Coprococcus, — (line r377): 0
- Abundance: Other, Other, Other (line r378): 35
- Abundance: Family Lachnospiraceae, Genus Other, Species Other (table row r380): 11
- Abundance: Family Ruminococcaceae, Genus Oscillospira, Species — (table row r381): 0
- Abundance: Family S24-7, Genus —, Species — (table row r382): 0
- Abundance: Family Ruminococcaceae, Genus Ruminococcus, Species — (table row r383): 0
- Abundance: Family Ruminococcaceae, Genus Oscillospira, Species — (table row r384): 31
- Abundance: Family Ruminococcaceae, Genus Ruminococcus, Species — (table row r389): 0
- Abundance: Family Lachnospiraceae, Genus —, Species — (table row r390): 0
- Abundance: Family Ruminococcaceae, Genus Oscillospira, Species — (table row r391): 0
- Abundance: Family Corynebacteriaceae, Genus Corynebacterium, Species stationis (table row r394): 0
- Abundance: Family Ruminococcaceae, Genus Other, Species Other (table row r395): 5
- Abundance: Family S24-7, Genus —, Species — (table row r396): 0
- Abundance: Family Ruminococcaceae, Genus Oscillospira, Species — (table row r397): 0
- Abundance: Family Ruminococcaceae, Genus Oscillospira, Species — (table row r398): 0
- Abundance: Family Ruminococcaceae, Genus Ruminococcus, Species — (table row r399): 0
- Abundance: Family [Mogibacteriaceae], Genus —, Species — (table row r400): 0
- Abundance: Family Erysipelotrichaceae, Genus Coprobacillus, Species — (table row r401): 0
- Abundance: Family Erysipelotrichaceae, Genus Clostridium, Species cocleatum (table row r402): 0
- Abundance: Family S24-7, Genus —, Species — (table row r403): 0
- Abundance: Family Coriobacteriaceae, Genus —, Species — (table row r404): 0
- Abundance: Family Coriobacteriaceae, Genus Adlercreutzia, Species — (table row r405): 0
- Abundance: Family Enterococcaceae, Genus Vagococcus, Species — (table row r407): 0
- Abundance: Family [Mogibacteriaceae], Genus —, Species — (table row r409): 0
- Abundance: Family S24-7, Genus —, Species — (table row r413): 0
- Abundance: Family Ruminococcaceae, Genus Oscillospira, Species — (table row r414): 0
- Abundance: Family Planococcaceae, Genus Sporosarcina, Species — (table row r415): 0
- Abundance: Family Erysipelotrichaceae, Genus Other, Species Other (table row r417): 7
- Abundance: Family Ruminococcaceae, Genus Ruminococcus, Species — (table row r419): 0
- Abundance: Family Coriobacteriaceae, Genus Adlercreutzia, Species — (table row r423): 0
- Abundance: Family Other, Genus Other, Species Other (table row r424): 0
- Abundance: Family Ruminococcaceae, Genus Other, Species Other (table row r425): 0
- Abundance: Family Erysipelotrichaceae, Genus —, Species — (table row r426): 0
- Abundance: Family Deferribacteraceae, Genus Mucispirillum, Species schaedleri (table row r427): 0
- Abundance: Family Methylobacteriaceae, Genus Methylobacterium, Species Other (table row r428): 0
